Assay [1] concerns the target T1, HDAC7 (Homo sapiens, UniProt Q8WUI4).
T1 sequence (Q8WUI4 1-952): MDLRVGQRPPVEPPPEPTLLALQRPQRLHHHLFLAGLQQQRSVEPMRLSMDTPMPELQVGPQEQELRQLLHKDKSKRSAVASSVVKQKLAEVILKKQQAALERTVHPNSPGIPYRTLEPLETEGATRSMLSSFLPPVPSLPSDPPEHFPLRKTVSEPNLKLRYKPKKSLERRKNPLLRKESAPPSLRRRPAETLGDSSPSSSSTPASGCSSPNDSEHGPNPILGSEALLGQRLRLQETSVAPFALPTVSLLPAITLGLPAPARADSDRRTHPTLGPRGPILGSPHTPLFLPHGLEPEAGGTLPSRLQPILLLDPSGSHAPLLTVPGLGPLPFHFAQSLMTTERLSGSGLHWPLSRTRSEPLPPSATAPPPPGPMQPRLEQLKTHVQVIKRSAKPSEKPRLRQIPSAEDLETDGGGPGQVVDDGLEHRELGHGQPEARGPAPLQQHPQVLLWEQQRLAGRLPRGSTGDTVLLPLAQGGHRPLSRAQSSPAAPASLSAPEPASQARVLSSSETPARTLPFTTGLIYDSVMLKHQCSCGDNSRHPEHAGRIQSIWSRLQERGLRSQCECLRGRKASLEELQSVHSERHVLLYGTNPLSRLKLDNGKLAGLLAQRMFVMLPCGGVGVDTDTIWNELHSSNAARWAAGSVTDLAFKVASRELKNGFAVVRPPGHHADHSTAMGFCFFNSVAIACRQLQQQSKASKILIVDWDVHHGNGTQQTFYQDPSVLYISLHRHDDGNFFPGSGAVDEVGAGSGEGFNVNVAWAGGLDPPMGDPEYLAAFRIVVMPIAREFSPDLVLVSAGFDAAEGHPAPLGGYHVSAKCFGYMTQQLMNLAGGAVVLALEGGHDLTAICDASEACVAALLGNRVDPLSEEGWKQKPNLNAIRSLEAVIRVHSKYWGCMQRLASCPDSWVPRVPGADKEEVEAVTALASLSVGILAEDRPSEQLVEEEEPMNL
Nature of the assay: Measurement of biochemical activities of HDAC (fluorescently-labeled acetylated lysine substrate). The procedure, abridged: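 For both HDAC isoforms, fluorescent acetyl-lysine substrate ([…] in reaction) incubated with enzyme and compounds for 30 min at 37; developer then added for 15 min at room temperature. Fluorescence read at excitation 360 nm, emission 460 nm.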

In assay [2] the test system is A549 (human lung cancer cells). Nature of the assay: MTT cancer cell growth inhibition. Type of assay: cell-based. The conditions noted are these: 72 h. The procedure, abridged: (§1)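 Cells in DMEM or 1640 + 10% FBS, 1500 cells/well, overnight then treated 72 h at 37 °C, 5% CO2 with compound 10^−5–10^−10 M final (0.1% DMSO control). MTT added 4 h, formazan dissolved in DMSO, read at 570 nm; survival rate calculated.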

For assay [3], the system named is BGC-823 (human gastric cancer cells). In words: MTT cancer cell growth inhibition. The conditions noted are these: 72 h, read-out: GI50 BGC823. Type of assay: cell-based. The essentials:
as §1

The subject of assay [4] is HT1080 (human fibrosarcoma cells). Nature of the assay: MTT cancer cell growth inhibition. Type of assay: cell-based. The conditions noted are these: HT-1080, 72 h. The essentials: as §1
In assay [5] the test system is Hela (human cervical cancer cells). Nature of the assay: MTT cancer cell growth inhibition. Type of assay: cell-based. As to conditions: 72 h. The procedure, abridged: as §1
Assay [6] relates to MCF-7 (human breast cancer cells). In words: MTT cancer cell growth inhibition. Type of assay: cell-based. As to conditions: MCF7, 72 h. The procedure, abridged:
as §1

Assay [7] deals with PANC-1. Nature of the assay: MTT cancer cell growth inhibition. Type of assay: cell-based. The conditions noted are these: Homo sapiens, 72 h. The procedure, abridged:
as §1

The test system of assay [8] is U937 (human leukemia cells). In words: MTT cancer cell growth inhibition. The conditions noted are these: U-937, 72 h. Type of assay: cell-based. The essentials: as §1
Assay [9] deals with Incap. In words: MTT cancer cell growth inhibition. Type of assay: cell-based. As to conditions: 72 h.

SMILES strings stand for the structures.

Consider 6 compounds from patent publication US8933195B2, “Histone deacetylase inhibitors and synthetic method thereof and use thereof in manufacture of medicaments” (Nanjing Yoko Biomedical R & D Ltd., priority 2011, dated 2015).

For orientation: GI50 means the concentration at which growth is held to half of that of the control.

On to `C/C=C1\NC(=O)c2csc(n2)CNC(=O)C[C@@H](/C=C/CCSC(=O)CCCCCCC)OC(=O)[C@H](C)NC1=O` [Compound 1-4], for which the “IC50 HDAC7” value in assay [1] was “no activity”. Also, the GI50 in [2] was 2900 nM; in assay [3], 2500 nM; in assay [4], 800 nM; in assay [5], 1300 nM; in assay [6] it was 200 nM; in assay [7], 1600 nM. In addition, the figures for the GI50 in [8] and in assay [9] were 30 nM and 200 nM, respectively.
`C/C=C1\NC(=O)c2csc(n2)CNC(=O)C[C@@H](/C=C/CCSC(=O)CCCCCCC)OC(=O)[C@H](C(C)(C)C)NC1=O` [Compound 1-6]: the “IC50 HDAC7” value in assay [1] was “no activity”. For the same compound, the GI50 in assay [2] is 500 nM; in [3] it was 400 nM; in assay [4], 1300 nM; in assay [5], 1000 nM; in assay [6], 600 nM; in [7], 3000 nM. The results for the 50% growth inhibitory concentration (GI50) in assay [8] and in assay [9] were 200 nM and 1200 nM, respectively.
On to `C/C=C1\NC(=O)c2csc(n2)CNC(=O)C[C@@H](/C=C/CCSC(=O)CCCCCCC)OC(=O)[C@H](Cc2ccccc2)NC1=O` [Compound 1-7], for which, in [1], the “IC50 HDAC7” value is “no activity”. The GI50 was 400 nM in [2]; 300 nM in assay [3]; 300 nM in assay [4]; 5000 nM in [5]; 700 nM in [6]; 1500 nM in [7]. For the same compound, the concentration for 50% growth inhibition (GI50) was 20 nM in assay [8] and 500 nM in assay [9].
`C/C=C1\NC(=O)c2csc(n2)CNC(=O)C[C@@H](/C=C/CCSC(=O)CCCCCCC)OC(=O)[C@H](Cc2ccc(O)cc2)NC1=O` [Compound 1-8]: the “IC50 HDAC7” value in [1] is recorded as “no activity”. The GI50 in assay [2] is 100 nM; in [3], 300 nM; in assay [4], 70 nM; in [5] it was 100 nM; in assay [6], 100 nM; in [7], 100 nM. The GI50 in assay [8] stood at 20 nM; in [9] it was 200 nM.
Regarding `O=C(CCCCCCC(=O)Nc1ccccc1)NO` [SAHA, suberoylanilide hydroxamic acid, reference compound], in [1], the “IC50 HDAC7” value is recorded as “no activity”. For the same compound, the GI50 in [2] stood at 7700 nM; in assay [3] it was 4500 nM; in assay [4], 3800 nM; in assay [5], 37800 nM; in [6], 1800 nM; in [7], 7460 nM. For the same compound, the GI50 in assay [8] worked out at 2310 nM; in assay [9], 4560 nM.
As to `C/C=C1\NC(=O)c2csc(n2)CNC(=O)C[C@@H](/C=C/CCSC(=O)CCCCCCC)OC(=O)[C@H](C(C)C)NC1=O` [Compound 1-3], the “IC50 HDAC7” value in assay [1] is reported as “no activity”. Also, the 50% growth inhibitory concentration (GI50) was 10000 nM in assay [2]; 60 nM in assay [3]; 4000 nM in [4]; 1000 nM in assay [5]; 1200 nM in assay [6]; 6000 nM in assay [7]. Further, the GI50 in [8] came out at 500 nM; in assay [9], 2000 nM.
